Consider two compounds from US20070027175A1, “Antineoplastic activities of ellipticine and its derivatives” (priority 2005, published 2007).

The subject of data set [1] is human fetal bone mesenchymal cells. The experiment in a line: Morphology of mesenchymal cells in co-culture. The conditions noted are these: co-culture without direct contact; EPED3 2 mM, Velcade 0.5 mM. It is filed as cell-based. The method, then:
FIGS. 11A-11F compare the morphological features of EPED3 and Velcade induced apoptosis in myeloma cells and normal mesenchymal cells. JJN3 myeloma cell line and human fetal bone mesenchymal cells were co-cultured without direct contact between cell types. EPED3 (2 mM) and Velcade (0.5 mM) were added to the cultures; control cells were untreated. Live cell cultures were photographed 3 days after initiating treatment (400× magnification under Olympus invert-microscope with RT-Color SPOT digital camera and the software, Diagnostic Instrument Inc. Sterling Heights, Mich.). In comparison to cell morphology of non-treated JJN3 cells, myeloma cells were destroyed under both EPED3 (FIG. 11E) and Velcade (FIG. 11F) treatments as the appearance of cell shrinkage, and the formation of phagozytosed apoptotic bodies (arrows); in comparison to no treatment, mesenchymal cells were also destroyed by Velcade treatment as the appearance of cell shrinkage, and the formation of phagozytosed apoptotic bodies (arrows) (FIG. 1C) but not by EPED3 treatment (FIG. 11B).
The monolayer human fetal bone mesenchymal cells were established from live bone chips (Advanced Bioscience Resources Inc, Alameda, Calif.) in complete RPMI-1640 medium. The medium was the same as described above. The cells were trypsinized and seeded in 6-well plates, and then allowed to reach 75% confluence. […]

Data set [2] relates to non myeloma cancer cell lines HEL, HL-60, k562, MEG01, THP1, Hela, G401, Du145, sw480, sw620, saoS2, MG63. The experiment in a line: Overall cell growth inhibition, non myeloma cancer cell lines (CellTiter-Glo). In kind it is cell-based. Details: dose or concentration left out as unconfirmed. As to conditions: 5 days. The protocol: Five non myeloma cancer cell lines, HEL (▮), HL-60 (▴), k562 (X), MEG01 ( ? ) and THP1 (▪) were exposed to NSC 388258 over a period of 5 days. The dose was set at 0.2 mM. […] The results obtained from these controls are pooled together in the figure (●).
Seven non myeloma cancer cell lines, Hela (▮), G401 (▴), Du145 (X), sw480, (*) sw620 (▪), SaoS2 (I) and MG63 (−) were exposed to NSC 388258 over a period of 5 days. The dose was set at 0.2 mM. […] The results obtained from these controls are pooled together in the figure (●).
To test the overall cell growth inhibition of NSC 338258, twelve non myeloma cancer cell lines, HEL, HL-60, k562, MEG01, THP1, Hela, G401, Du145, sw480, sw620, saoS2, and MG63, were exposed to the compound in 96 well cell culture plates for a period of five days.
Background: Cellular ATP, detected with luciferase, serves as a proxy for viable cell number.

The conditions of data set [3]: 50 mg/kg; intraperitoneal injection; P388 Leukemia-bearing CD2F1 mice; cited from earlier work.
Data set [4] deals with myeloma cell lines engrafted in SCID mice. It is filed as in vivo. As to conditions: 25 and 50 mg/kg/day; Alzet osmotic pumps; 28 days; contemplated. The source says:
The present invention also examines novel therapeutic approaches for myeloma using experimental animal models. The anti-myeloma efficacy of 9-(Dimethylaminoethoxy)-ellipticine is examined using a panel of myeloma cell lines engrafted in severe combined immunodeficient (SCID) mice. The 3 cell lines are infected with a lentivirus-containing luciferase. Luciferase-expressing myeloma cells can be traced in live animals using the Xenogen IVIS 200 luminescence imaging system. Six to 8 weeks old SCID mice are subcutaneously injected with 10^7 myeloma cells. Tumor growth in live animals is monitored by measuring circulating level of monoclonal human immunoglobulins (hIg) in mice sera using ELISA (Yaccoby et al., 1998; Yang et al., 2002) and through imaging of tumor cells luminescence intensity. The tumor growth is detected within one week by ELISA and within 1-3 weeks by imaging.
Upon establishment of myeloma growth as determined by both methods, mice are randomly divided into 3 groups; one control and 2 treated with different doses of 9-(Dimethylaminoethoxy)-ellipticine (8 mice/group for each cell line). Mice are implanted with Alzet osmotic pumps delivering 0.25 μl of drug solution per hour for 28 days. The daily doses are 25 and 50 mg/kg/day. Control animals have pumps loaded with buffer (PBS) only. At the experiments' end, mice are subjected to imaging analysis, bled and sacrificed. […]

For another data set, the system named is Ark myeloma cell line. The experiment in a line: CellTiter-Glo luminescent cell viability assay, Ark. In kind it is cell-based, human. The arrangement: unit of the concentration uncertain. The method, then:
The dosage of each derivative was set at 2, 0.2 and 0.02 mM. A cell culture medium control and 0.5% DMSO control was maintained in each experiment. The cell viability was tested each day over a period of five days using the CellTiter-Glo luminescent cell viability assay kit from Promega Co.
Cell Titer-Glo luminescent cell viability assay kit from Promega Co (Madison, Wis.) was used to determine cell growth inhibition by the various compounds tested. The kit determines cell viability by quantifying the amount of ATP present in the cell culture medium. Presence of ATP signals the presence of metabolically active cells (3). The intensity of luminescence was measured by a computerized luminometer (Promega, Co. Madison, Wis.). Each well was read five times within 30 minutes of adding Cell Titer-Glo reagent mixture.
Cells were contacted with the antineoplastic agents in ninety six well culture plates. The concentration of each neoplastic agent was maintained a constant. A cell culture medium control and 0.5% DMSO control were maintained in each set of experiments. The cell viability was tested every day using the CellTiter-Glo luminescent cell viability kit from Promega Co. (Madison, Wis.) for a period of five days.

On to `CC(C)C[C@H](NC(=O)[C@H](Cc1ccccc1)NC(=O)c1cnccn1)B(O)O` [Velcade, bortezomib, reference compound], for which, in data set [1], the “morphological damage of mesenchymal cells” value is listed as “severe destruction of the mesenchymal cells”.

`Cc1c2ccncc2c(C)c2c1[nH]c1ccc(OCCN(C)C)cc12` [NSC 338258, ellipticine, 9-dimethyl amino-ethoxy-]: in data set [2], the “activity against non-myeloma cell lines” value was “effective against non-myeloma cell lines”. Also, the “animals survived EPED3 toxicity for at least 5 days” value in data set [3] was “five out of six”. The “inhibition of myeloma cell growth in vivo” value in data set [4] was “effectively inhibits myeloma cell growth in vivo”. The “cell viability (CellTiter-Glo luminescent assay)” value (from here on “cell viability”) with Ark myeloma cell line (0.02 (unit uncertain), Day 1) is 99,050; in the data set on Ark myeloma cell line (0.02 (unit uncertain), Day 2), 187,835; in the data set on Ark myeloma cell line (0.02 (unit uncertain), Day 3) it was 297,927; in the data set on Ark myeloma cell line (0.02 (unit uncertain), Day 4), 764,382; in the data set on Ark myeloma cell line (0.02 (unit uncertain), Day 5), 982,255; in the data set on Ark myeloma cell line (0.2 (unit uncertain), Day 1), 1,085. In addition, the “cell viability” value with Ark myeloma cell line (0.2 (unit uncertain), Day 2) is recorded as 489; in the data set on Ark myeloma cell line (0.2 (unit uncertain), Day 3), 384; in the data set with Ark myeloma cell line (0.2 (unit uncertain), Day 4), 530; in the data set on Ark myeloma cell line (0.2 (unit uncertain), Day 5), 376; in the data set with Ark myeloma cell line (2 (unit uncertain), Day 1), 523; in the data set with Ark myeloma cell line (2 (unit uncertain), Day 2), 342. The “cell viability” value is 366 with Ark myeloma cell line (2 (unit uncertain), Day 3); 478 with Ark myeloma cell line (2 (unit uncertain), Day 4); 299 with Ark myeloma cell line (2 (unit uncertain), Day 5).
